Measured values reported in US8399005B2, “Use of nitric oxide to enhance the efficacy of silver and other topical wound care agents” (University of North Carolina at Chapel Hill, priority 2007, dated 2013).

Assays:
[1] = system: P. aeruginosa; assay: Bactericidal assays under static conditions (PBS); type: cell-based
Experimental: Bactericidal assays under static conditions. […] Silica nanoparticles (NO-releasing and control), PROLI/NO, and proline were added to separate aliquots of the bacterial suspension over a concentration range optimized for each system. After 1 h incubation at 37° C. with gentle agitation, 100-μL aliquots from each suspension were plated on tryptic soy agar. After overnight incubation at 37° C., the colonies on each plate were counted, allowing for calculation of the number of viable P. aeruginosa cells in each vial at the time of plating.

[2] = system: P. aeruginosa cells; assay: Confocal microscopy with DAF-2 DA NO probe and propidium iodide; type: cell-based
Text: Once inside the bacterial cell membrane, the DAF-2 DA probe is hydrolyzed to DAF-2, which is membrane-impermeable. […] Cells loaded with DAF-2 were imaged in the presence of propidium iodide (PI), which is a nucleic acid viability dye that only enters cells with compromised membranes, and fluoresces red once inside the cells. Thus, red fluorescence is indicative of cell death. […] After a peak intracellular intensity of DAF-2 fluorescence was reached, the red fluorescence of the PI began to increase, indicating entry of the PI into the cells due to membrane disruption and cell death.

[3] = system: P. aeruginosa; assay: Time-based bactericidal assays under nutrient growth conditions (TSB); type: cell-based; parameters: amount of NO per mL required for complete bacterial killing: unit not given here
Experimental: Time-based bactericidal assays under nutrient growth conditions. To test the temporal efficacy of the NO-releasing silica nanoparticles, time-based antibacterial assays were conducted in TSB nutrient media. P. aeruginosa was cultured in TSB to a concentration of 10^8 CFU·mL^−/1 and diluted to 10^4 CFU·mL^−1 in additional TSB. […] Bacterial viability was determined as described above after incubating the plates overnight at 37° C.

[4] = system: S. aureus; conditions: TSB
Experimental: (§1) Determining the Minimum Bactericidal Concentration (MBC120). […] This value, the MBC120, was acquired by growing S. aureus to an OD600=0.075 in TSB. At this value the concentration was determined to be 10^8 CFUs/mL. In order to achieve a final bacterial concentration of 10^4, four ten-fold dilutions were performed in TSB. […] For proli/NO, 1 mL of 2×10^4 CFUs/mL bacterial solution was added to various masses (0.5-16 mg). […] The plates were incubated overnight at 37° C. and enumerated. The graphs present the total CFUs present in each tube as determined by counting each colony and multiplying that number by 100 to account for both 10-fold dilutions. Determination of Fractional Bactericidal Concentration (FBC120). […] S. aureus was cultured to a concentration of 10^8 CFUs/mL and the concentration was adjusted to 2×10^4 CFUs/mL in TSB. […] After incubating the plates overnight at 37° C., viability was determined by counting the number of distinct colonies on each plate and multiplying this number by 100 to account for the two 10-fold dilutions. The numerical value of the FBC120 was obtained according to the equation:

[5] = system: S. aureus; assay: Fractional bactericidal concentration (FBC120) time-based synergistic killing assay in TSB; type: cell-based
Experimental: as §1

[6] = system: L929 cells; assay: L929 propidium iodide (PI) viability assay (Example 1); type: cell-based, mouse; conditions: 2 mg/mL, L929, KRH buffer
Experimental: [formula] L929 propidium iodide (PI) viability assay. L929 cells were plated on 24-well tissue culture treated dishes (BD Bioscience #353047) at a density of 3.0×10^5 cells/ml (150×10^3 cells/well) and incubated overnight at 37° C., in 5% CO2/95% air for 18-20 h. For the PI assay, the incubation buffer was aspirated from each of the wells and replaced with 500 μL of Krebs-Ringer-HEPES (KRH) buffer containing (mM): 115 NaCl, 5 KCl, 1 CaCl2, 1 KH2PO4, 1.2 MgSO4, 25 HEPES, pH 7.4, supplemented with 30 μM of PI. The fluorescence of the cells was determined in a concentration-dependent manner against both proli/NO and proline, as monitored using a FluoStar Galaxy plate reader (BMG Labtech, Durham, N.C.) with excitation and emission filters set at 544 and 640 nm, respectively. Fluorescence was acquired at 0 and 60 min. An additional 20 min incubation of cells with 40 μM digitonin was required to completely permeabilize plasma membranes and achieve maximum PI fluorescence. Cell viability was represented as an increase in PI fluorescence from each well expressed as percentage of the maximum fluorescence obtained in cells treated with digitonin (100% cell death). S. aureus cytotoxicity assay in PBS. […] Toxicity was measured by aliquoting this bacterial solution into eppendorf tubes containing proli/NO, incubating these solutions for one hour at 37° C., and then plating them on TSA plates. […]

[7] = type: physicochemical
Experimental: We synthesized proli/NO by subjecting a 2:1 molar ratio of sodium methoxide in methanol and proline to 5 atm of NO for 3 days. To the resulting solution excess diethyl ether was added. After vacuum removal of solvent a white solid was obtained. Its NO release was monitored using chemiluminescence; we determined that proli/NO releases a total of 1.8 μmol NO/mg in less than 70 s when exposed to PBS at pH 7.4. Release is initiated quickly by protonation of proline's cyclic amine or slowly by thermal degradation. In the MBC120 determination, proli/NO was kept on ice until exposure to bacterial solution to prevent thermal NO release. Proli/NO's MBC120 is 16 mg/mL against S. aureus. […] See Turner, T. D., et al., J Pharm. Pharmacol. 41, 775-80 (1989). […] Synergy is determined based on inhibition beyond what would be expected for each alone. […] More specifically, the MBC was used instead of the MIC, once again because we are interested in reducing a bacterium's chances of becoming resistant to the drug employed by developing conditions that will lead to a quick kill. Additionally, reducing the bacterial burden in wound beds quickly is paramount to prevent infections. […] See Feng Q. L. et al., J. Biomed. Mater. Res. 52, 662-668 (2000).
Nitric oxide release measurements. Nitric oxide release from both the diazeniumdiolate-modified silica nanoparticles and PROLI/NO was measured in deoxygenated phosphate-buffered saline (PBS, 0.01 M; 37° C.) at pH 7.4 using a Sievers NOA 280i chemiluminescence NO analyzer (Boulder, Colo.). Nitric oxide released from the donors was transported to the analyzer by a stream of N2 (70 mL·min^−1) passed through the reaction cell. The instrument was calibrated with air passed through a NO zero filter (0 ppm NO) and a 24.1 ppm NO standard gas (balance N2).

[8] = system: mammalian cells; conditions: 200 ppm for 4 hours; cited from earlier work
[9] = amount of NO equal to 100 μg·mL^−1 nanoparticles

In the case of `NCCNCCN` [diethylenetriamine backbone, diethylenetriamine], the “toxicity of backbone alone to P. aeruginosa” value ([1]; data not shown) is reported as “considerable toxicity”.
With `O=C([O-])C1CCCN1[N+]([O-])=N[O-].[Na+].[Na+]` (stereo not shown) [proli/NO] the “P. aeruginosa cell death (PI fluorescence)” value ([2]; 5 mg·mL^−1) was “rapid cell death”, the “intracellular DAF-2 fluorescence prior to cell death” value ([2]; 5 mg·mL^−1) was “still not observed” and the “P. aeruginosa cell death (PI fluorescence)” value [2, 9] was “cell death was not observed”. The “intracellular DAF-2 fluorescence” value [2, 9] was “no intracellular DAF-2 fluorescence was observed”, the “time to complete killing” value ([3]; 12 mg·mL^−1, TSB) was 30 min and the “time of bacterial killing” value ([3]; 12 and 20 mg·mL^−1, TSB) was under 30 min. For the same compound, the “amount of NO per mL required for complete bacterial killing” value ([3]; TSB) was 21.6, the “amount of NO required per mL for a 3 log reduction in bacterial viability” value ([1]; PBS, 1 h) was 4.5 μmol NO and the “concentration completely bactericidal (3 logs of killing)” value ([1]; PBS, 1 h) was 2.5 mg·mL^−1. For the same compound, the “mass required relative to silica nanoparticles for complete killing” value ([1]; PBS, by mass) was “approximately 35 times”, the “MBC120 (concentration for three logs of killing within 120 min)” value [4] was 16 mg/mL and the “toxicity to S. aureus, agent alone” value ([5]; 8 mg/mL proli/NO alone) was “non-toxic”. For the same compound, the “fraction of MBC120 used in the combination” value ([5]; 2/16 mg/mL proli/NO, 21.9/[…] AgSD) was 0.125, the “toxicity to dermal fibroblasts” value [6] was “non-toxic” and the “time in which the total NO is released” value ([7]; PBS at pH 7.4 (Example 1)) was “less than 70 s”. For the same compound, the “total NO released” value ([7]; PBS at pH 7.4 (Example 1)) was 1.8 μmol NO/mg, the “total amount of NO released (t[NO])” value ([7]; PBS pH 7.4, 37° C. (Example 2)) was 1.8 μmol NO·mg^−1 and the “time required to reach the maximum NO flux (tm)” value ([7]; after immersion in / addition to buffer) was “approximately 1 min”. For the same compound, the “maximum NO flux ([NO]m)” value ([7]; not told, pH 7.4) was over 145000 ppb·mg^−1 and the “NO release half life (t1/2)” value ([7]; pH 7.4) was under 2 min.
For `O=C(O)[C@@H]1CCCN1` [proline], the “growth of P. aeruginosa exposed to control solutions” value ([3]; TSB, 2 h) was “proliferated”, the “killing of P. aeruginosa by controls depleted of NO” value ([1]; over the concentration ranges tested) was “no killing” and the “toxicity to P. aeruginosa” value ([1]; up to 20 mg·mL^−1, the highest concentrations tested) was “no toxicity”.
In the case of nitric oxide [NO gas], the “toxicity to mammalian cells” value [8] is given as “not toxic”.
